Measurements: the supplement of paper PMC11451515

System: NOMO1
Experiment: cell viability relative to DMSO control; higher = less cytotoxic
Settings: 48 h
In short: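 Leukemia cells (NOMO1 or SEM, 500 cells/well; P12-Ichikawa, 1000 cells/well) were seeded in 5 μl in 1536-well plates after at least four passages of adaptation to each medium. They received library compounds in DMSO by pin dosing, 11 threefold points from 47 μM to 0.79 nM. Luminescence with CellTiter-Glo One was read after 48 h at 37°C. Viability is stated per plate relative to DMSO wells, with cell-free wells as background.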

[1] = HPLM + 10% dialyzed FBS, 0.000781 µM
[2] = HPLM + 10% dialyzed FBS, 0.00234 µM
[3] = HPLM + 10% dialyzed FBS, 0.00702 µM
[4] = HPLM + 10% dialyzed FBS, 0.0211 µM
[5] = HPLM + 10% dialyzed FBS, 0.0632 µM
[6] = HPLM + 10% dialyzed FBS, 0.19 µM
[7] = HPLM + 10% dialyzed FBS, 0.569 µM
[8] = HPLM + 10% dialyzed FBS, 1.71 µM
[9] = HPLM + 10% dialyzed FBS, 5.12 µM
[10] = HPLM + 10% dialyzed FBS, 15.4 µM
[11] = HPLM + 10% dialyzed FBS, 46.1 µM
[12] = RPMI 5 mM glucose + 10% FBS, 0.000781 µM
[13] = RPMI 5 mM glucose + 10% FBS, 0.00234 µM
[14] = RPMI 5 mM glucose + 10% FBS, 0.00702 µM
[15] = RPMI 5 mM glucose + 10% FBS, 0.0211 µM
[16] = RPMI 5 mM glucose + 10% FBS, 0.0632 µM
[17] = RPMI 5 mM glucose + 10% FBS, 0.19 µM
[18] = RPMI 5 mM glucose + 10% FBS, 0.569 µM
[19] = RPMI 5 mM glucose + 10% FBS, 1.71 µM
[20] = RPMI 5 mM glucose + 10% FBS, 5.12 µM
[21] = RPMI 5 mM glucose + 10% FBS, 15.4 µM
[22] = RPMI 5 mM glucose + 10% FBS, 46.1 µM
[23] = RPMI 5 mM glucose + 10% dialyzed FBS, 0.000781 µM
[24] = RPMI 5 mM glucose + 10% dialyzed FBS, 0.00234 µM
[25] = RPMI 5 mM glucose + 10% dialyzed FBS, 0.00702 µM
[26] = RPMI 5 mM glucose + 10% dialyzed FBS, 0.0211 µM
[27] = RPMI 5 mM glucose + 10% dialyzed FBS, 0.0632 µM
[28] = RPMI 5 mM glucose + 10% dialyzed FBS, 0.19 µM
[29] = RPMI 5 mM glucose + 10% dialyzed FBS, 0.569 µM
[30] = RPMI 5 mM glucose + 10% dialyzed FBS, 1.71 µM
[31] = RPMI 5 mM glucose + 10% dialyzed FBS, 5.12 µM
[32] = RPMI 5 mM glucose + 10% dialyzed FBS, 15.4 µM
[33] = RPMI 5 mM glucose + 10% dialyzed FBS, 46.1 µM

Row | SMILES | cell viability [1] | cell viability [2] | cell viability [3] | cell viability [4] | cell viability [5] | cell viability [6] | cell viability [7] | cell viability [8] | cell viability [9] | cell viability [10] | cell viability [11] | cell viability [12] | cell viability [13] | cell viability [14] | cell viability [15] | cell viability [16] | cell viability [17] | cell viability [18] | cell viability [19] | cell viability [20] | cell viability [21] | cell viability [22] | cell viability [23] | cell viability [24] | cell viability [25] | cell viability [26] | cell viability [27] | cell viability [28] | cell viability [29] | cell viability [30] | cell viability [31] | cell viability [32] | cell viability [33]
1 | Cn1cnc(-c2cc3nccc(Oc4ccc(NC(=S)NC(=O)Cc5ccccc5)cc4F)c3s2)c1 | 72.5% | 93.2% | 84.1% | 92.4% | 99.9% | 97.1% | 91.3% | 86% | 77.9% | 62% | 25.8% | 77.3% | 88.3% | 77.4% | 86.2% | 89.8% | 96.4% | 89.6% | 87.5% | 82.2% | 85.2% | 20.5% | 84% | 81.2% | 68.1% | 86% | 93.6% | 101% | 83% | 90% | 86.1% | 88.1% | 26.7%
2 | O=C(c1ccc(/C=C/c2n[nH]c3ccccc23)cc1)N1CCNCC1 | 108% | 96.5% | 88.4% | 87.1% | 97.9% | 120% | 115% | 69.4% | 70.9% | 88.7% | 73.1% | 97% | 100% | 94% | 85.8% | 90.7% | 86.2% | 87.1% | 56.2% | 63.8% | 58.4% | 69% | 86.5% | 85.6% | 88.6% | 97.2% | 87.8% | 97.4% | 93.9% | 54.9% | 49.5% | 65.5% | 71.2%
3 | CC[C@H](NC(C)C)[C@H](O)c1ccc(O)c2[nH]c(=O)ccc12 | 113% | 103% | 108% | 97.6% | 108% | 113% | 124% | 107% | 108% | 96.8% | 104% | 91.2% | 95.8% | 88.7% | 95.7% | 84.6% | 107% | 101% | 94.5% | 97% | 84.1% | 90.6% | 84.7% | 109% | 104% | 94.4% | 102% | 107% | 96.9% | 95.3% | 94.6% | 87% | 91.2%
4 | CCC[C@@H](C=O)NC(=O)[C@H](CC(C)C)NC(=O)[C@H](CC(C)C)NC(=O)OCc1ccccc1 | 113% | 121% | 121% | 138% | 138% | 139% | 138% | 75.4% | 19.2% | 7.83% | 5.86% | 101% | 110% | 119% | 135% | 126% | 127% | 127% | 35.3% | 13.9% | 8.52% | 7.79% | 115% | 130% | 124% | 131% | 143% | 143% | 132% | 93.1% | 32.4% | 9.45% | 7.3%
5 | CC(C)C(=O)Nc1ncc(-c2cc(C(F)F)nn2-c2c(Cl)cccc2Cl)s1 | 116% | 123% | 112% | 137% | 152% | 125% | 148% | 132% | 133% | 133% | 83.9% |  |  |  |  |  |  |  |  |  |  |  |  |  |  |  |  |  |  |  |  |  | 
6 | COc1ccc(CC2c3cc(OC)c(OC)cc3CC[N+]2(C)CCC(=O)OCCCCCOC(=O)CC[N+]2(C)CCc3cc(OC)c(OC)cc3C2Cc2ccc(OC)c(OC)c2)cc1OC (configuration not stated) | 91% | 98.8% | 116% | 98.5% | 109% | 98.8% | 93.6% | 92.2% | 77.1% | 29.9% | 7.29% | 77.8% | 77.8% | 85.7% | 89.3% | 98.6% | 93% | 85.7% | 97.5% | 87.5% | 65% | 8.84% | 75.5% | 87% | 79.2% | 93.3% | 85.8% | 92% | 84.6% | 90% | 70% | 67.5% | 8.69%
7 | NCCCCCC(=O)O | 97.6% | 95.2% | 104% | 88.4% | 107% | 119% | 110% | 110% | 96.3% | 97% | 99.1% | 91.2% | 94.7% | 108% | 94.2% | 102% | 107% | 86.4% | 92.5% | 97.1% | 88.2% | 95.9% | 80.4% | 92.8% | 107% | 93.4% | 97.3% | 103% | 92.7% | 87.8% | 93.9% | 85.6% | 96.4%
8 | CCc1c(O)cc(O)c(C(=O)c2ccc(OCCN3CCOCC3)c(OC)c2)c1CC(=O)N(CCOC)CCOC | 102% | 106% | 117% | 127% | 127% | 119% | 114% | 80.7% | 21.2% | 13.7% | 11.6% | 101% | 101% | 113% | 106% | 118% | 124% | 109% | 93.4% | 21.6% | 12.3% | 11.3% | 115% | 114% | 114% | 108% | 114% | 106% | 102% | 98.8% | 28.2% | 16.4% | 14.1%
